What was measured:
[1] = molecular target: T1, human recombinant V2 vasopressin receptors (Homo sapiens, UniProt P30518); assay: in vitro binding test, displacement of [H3]-AVP from V2 vasopressin receptors; conditions: CHO membranes, 3.5 nM [H3]-AVP, 45 minutes at 25° C.
T1 construct: expressed in transfected cells; host or cells: CHO
Method: The affinity of the compounds of the invention for the V2 vasopressin receptors was measured in in vitro binding tests, as described in J. Pharmacol. Exp. Ther., (2002), 300: pp. 1122-1130.
Plasma membranes (about 20 μg/ml) obtained from CHO tissue or cell line expressing human recombinant V2 vasopressin receptors, are incubated for 45 minutes at 25° C. in 200 μL of TRIS-HCl buffer (50 mM; pH 8.2) containing 2 mM of MgCl2, 1 mM of EDTA, 0.1% of BSA, 1/500 protease inhibitor cocktail (Sigma #P2714) and 3.5 nM of [H3]-AVP. The reaction is stopped by filtration and washing on GF/B filters. Nonspecific binding is determined in the presence of 1 μM of AVP. The compounds of the invention, dissolved beforehand to a concentration of 10^−2 M in DMSO, are tested in a dilution series.
For each concentration the results are expressed as percentage inhibition of specific binding. An IC50 (concentration of product inhibiting 50% of specific binding) is determined for each of the products using the in-house software Biost@t-SPEED v1.3 which employs the 4-parameter logistic model of Ratkovsky and Reedy (1986). Adjustment is obtained by nonlinear regression using Marquardt's algorithm of the SAS v8.2 software running under UNIX.

human oxytocin receptors = molecular target: T2, human oxytocin receptors (Homo sapiens, UniProt P30559); assay: in vitro binding test, displacement of a radioiodated oxytocin analogue from oxytocin receptors; conditions: for IC50: membrane preparation of human oxytocin receptors; for IC50 OXT/IC50 V2: selectivity ratio versus V2
T2 sequence (P30559 1-389): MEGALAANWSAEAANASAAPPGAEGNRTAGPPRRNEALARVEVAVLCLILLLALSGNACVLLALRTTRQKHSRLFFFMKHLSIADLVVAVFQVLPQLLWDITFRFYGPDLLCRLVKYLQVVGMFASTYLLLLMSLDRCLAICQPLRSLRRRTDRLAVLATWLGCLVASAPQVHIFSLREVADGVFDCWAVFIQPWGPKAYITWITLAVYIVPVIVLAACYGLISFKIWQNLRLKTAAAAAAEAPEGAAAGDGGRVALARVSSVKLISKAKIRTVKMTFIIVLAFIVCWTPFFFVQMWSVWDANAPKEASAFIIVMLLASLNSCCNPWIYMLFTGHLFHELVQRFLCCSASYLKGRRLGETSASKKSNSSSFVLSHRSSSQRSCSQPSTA
Method: (§1) The affinity of the compounds of the invention for the Via and V1b vasopressin receptors and the affinity of the compounds of the invention for the oxytocin (OXT) receptors were also tested.
The affinity of the compounds according to the invention for the OXT receptors was determined in an in vitro binding test using the method described by J. Elands et al. in Eur. J. Pharmacol. 1987, 147, 197-207. This method comprises in vitro investigation of the displacement of a radioiodated analogue of oxytocin from the oxytocin receptors in a membrane preparation of human oxytocin receptors.

V1a receptors = V1a receptors (Homo sapiens, UniProt P37288); assay: affinity for V1a receptors (method of Thibonnier et al.); type: binding; conditions: for IC50 V1a/IC50 V2: selectivity ratio versus V2
Sequence of V1a receptors (P37288 whole entry): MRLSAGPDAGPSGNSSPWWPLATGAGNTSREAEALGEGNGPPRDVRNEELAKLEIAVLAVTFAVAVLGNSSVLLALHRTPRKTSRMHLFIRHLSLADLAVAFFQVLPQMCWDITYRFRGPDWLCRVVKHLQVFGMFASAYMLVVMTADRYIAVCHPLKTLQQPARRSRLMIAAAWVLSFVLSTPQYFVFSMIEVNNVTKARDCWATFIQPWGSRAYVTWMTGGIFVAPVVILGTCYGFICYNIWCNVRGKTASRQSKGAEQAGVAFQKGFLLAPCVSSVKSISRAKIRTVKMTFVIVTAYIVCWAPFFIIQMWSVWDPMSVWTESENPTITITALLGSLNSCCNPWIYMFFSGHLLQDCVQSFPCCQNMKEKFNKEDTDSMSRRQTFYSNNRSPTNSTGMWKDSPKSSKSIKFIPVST
Method: as §1
(§2) The affinity of the compounds according to the invention for human Via receptors was determined according to the method described by M. Thibonnier et al. in J. Biol. Chem. 1994, 269, 3304-3310. The affinity of the compounds according to the invention for the V1b receptors was determined according to the method described by T. Sugimoto et al. in J. Biol. Chem. 1994, 269, 27088-27092.

V1b receptors = molecular target: T3, V1b receptors (Homo sapiens, UniProt P47901); assay: affinity for V1b receptors (method of Sugimoto et al.); type: binding; conditions: for IC50 V1b/IC50 V2: selectivity ratio versus V2
T3 sequence (P47901 1-424): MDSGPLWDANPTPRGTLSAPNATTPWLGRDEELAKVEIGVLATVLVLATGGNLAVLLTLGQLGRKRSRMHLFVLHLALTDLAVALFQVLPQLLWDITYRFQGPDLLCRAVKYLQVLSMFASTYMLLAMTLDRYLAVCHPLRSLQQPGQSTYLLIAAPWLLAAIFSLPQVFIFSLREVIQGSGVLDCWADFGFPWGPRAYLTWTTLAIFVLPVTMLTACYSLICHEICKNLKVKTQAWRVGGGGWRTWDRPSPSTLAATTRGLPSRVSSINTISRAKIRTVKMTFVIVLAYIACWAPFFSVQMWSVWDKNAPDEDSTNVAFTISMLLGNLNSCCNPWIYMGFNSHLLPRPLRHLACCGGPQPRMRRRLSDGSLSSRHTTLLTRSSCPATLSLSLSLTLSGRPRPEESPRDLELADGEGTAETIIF
Method: as §1, §2

T1 sequence (P30518 whole entry): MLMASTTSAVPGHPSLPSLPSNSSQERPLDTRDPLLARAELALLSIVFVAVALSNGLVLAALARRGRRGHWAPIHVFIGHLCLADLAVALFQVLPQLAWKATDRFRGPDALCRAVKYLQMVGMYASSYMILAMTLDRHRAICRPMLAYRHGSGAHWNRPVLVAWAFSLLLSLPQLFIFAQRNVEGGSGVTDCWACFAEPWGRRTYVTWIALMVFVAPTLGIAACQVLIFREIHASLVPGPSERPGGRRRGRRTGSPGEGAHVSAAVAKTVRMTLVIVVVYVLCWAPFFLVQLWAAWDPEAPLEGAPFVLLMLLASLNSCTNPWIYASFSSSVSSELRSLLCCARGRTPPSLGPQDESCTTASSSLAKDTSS

IC50 [1] [nM]	IC50 (human oxytocin receptors) [nM]	IC50 OXT/IC50 V2 (human oxytocin receptors)	melting point [°C]	IC50 (V1a receptors) [nM]	IC50 V1a/IC50 V2 (V1a receptors)	IC50 (V1b receptors) [nM]	IC50 V1b/IC50 V2 (V1b receptors)	SMILES
2.5	> 1000	>100	180	630	>100	> 1000	>100	CCOc1ccc2c(c1)C(C)(c1cc(NC(=O)C3CCN(C)CC3)ccc1Cl)C(=O)N2S(=O)(=O)c1ccc(C(=O)NC(C)(C)C)cc1OC (stereo not drawn) [Example 62, 1-methylpiperidine-4-carboxylic acid {3-[1-(4-tert-butylcarbamoyl-2-methoxy-benzenesulphonyl)-5-ethoxy-3-methyl-2-oxo-2,3-dihydro-1H-indol-3-yl]-4-chlorophenyl}-amide]
1.3	700	>100	216	730	>100	> 1000	>100	CCOc1ccc2c(c1)C(C)(c1cc(C(=O)N[C@@H]3CCNC3)ccc1Cl)C(=O)N2S(=O)(=O)c1ccc(C(=O)NC(C)(C)C)cc1OC (single isomer, unassigned) [Example 43]
1.9	140	74	153	450	>100	> 1000	>100	CCOc1ccc2c(c1)C(C)(c1ccccc1Cl)C(=O)N2S(=O)(=O)c1ccc(C(=O)NC(C)(C)C)cc1 (single isomer, unassigned) [Example 12, N-tert-butyl-4-[3-(2-chlorophenyl)-5-ethoxy-3-methyl-2-oxo-2,3-dihydroindole-1-sulphonyl]benzamide]

Source: patent US20100069384A1, “5-ALKYLOXY-INDOLIN-2-ONE DERIVATIVES, PREPARATION THEREOF AND APPLICATION THEREOF IN THERAPY” (SANOFI-AVENTIS, priority 2006, published 2010)
